# Calls of active or inactive are those of the source. No cut-off for these calls is given here.
# Columns and labels:
# [1] = molecular target: T1, D-3-phosphoglycerate dehydrogenase (Homo sapiens) (UniProt O43175); experiment: Inhibition of recombinant human C-terminal His-tagged PHGDH (1 to 533 residues) expressed in Escherichia coli assessed as reduction in NADH formation at 100 uM using 3-phosphoglycerate as substrate preincubated measured for 7 mins in presence of NAD+ by spectrophotometric method relative to control
# T1 sequence (whole entry): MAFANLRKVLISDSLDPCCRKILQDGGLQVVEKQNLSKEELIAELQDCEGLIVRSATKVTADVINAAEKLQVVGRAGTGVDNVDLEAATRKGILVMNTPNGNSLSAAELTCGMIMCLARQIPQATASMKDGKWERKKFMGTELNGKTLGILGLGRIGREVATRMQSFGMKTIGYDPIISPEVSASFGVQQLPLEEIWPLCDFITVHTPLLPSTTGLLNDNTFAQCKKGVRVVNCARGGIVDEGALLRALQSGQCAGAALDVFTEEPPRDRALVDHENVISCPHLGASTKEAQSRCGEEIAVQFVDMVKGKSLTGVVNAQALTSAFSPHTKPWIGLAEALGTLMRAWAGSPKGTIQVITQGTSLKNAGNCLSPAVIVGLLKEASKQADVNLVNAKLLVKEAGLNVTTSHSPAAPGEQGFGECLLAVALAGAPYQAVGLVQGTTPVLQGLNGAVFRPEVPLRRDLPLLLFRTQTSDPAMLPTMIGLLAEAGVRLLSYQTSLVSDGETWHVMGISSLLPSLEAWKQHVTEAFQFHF
# [2] = molecular target: T2, D-3-phosphoglycerate dehydrogenase (Homo sapiens, UniProt O43175); experiment: Inhibition of recombinant human C-terminal His-tagged PHGDH (1 to 533 residues) expressed in Escherichia coli assessed as reduction in NADH formation using 3-phosphoglycerate as substrate in presence of NAD+ by resorufin fluorescence based PSAT1/diaphorase/PSPH coupled enzyme assay
# T2 sequence (O43175 whole entry): T1 sequence (whole entry)
# [3] = test system: MDA-MB-231; experiment: Cytotoxicity against PHGDH deficient human MDA-MB-231 cells assessed as reduction in cell viability after 5 days by presto blue assay; assay type: functional, cell-based; conditions: MDA-MB-231, 120 h
# [4] = molecular target: T1, D-3-phosphoglycerate dehydrogenase (Homo sapiens); experiment: Ratio of IC50 for inhibition of PHGDH in human SiHa cells assessed as reduction in cell viability in serine repleted medium to IC50 for inhibition of PHGDH in human SiHa cells assessed as reduction in cell viability in serine depleted medium; assay type: cell-based
# [5] = molecular target: T1, D-3-phosphoglycerate dehydrogenase (Homo sapiens); experiment: Ratio of IC50 for inhibition of PHGDH in human HL60 cells assessed as reduction in cell viability in serine repleted medium to IC50 for inhibition of PHGDH in human HL60 cells assessed as reduction in cell viability in serine depleted medium; assay type: cell-based
# [6] = test system: HL-60; experiment: Cytotoxicity against PHGDH knockout human HL60 cells assessed as reduction in cell viability after 5 days by presto blue assay; assay type: functional, cell-based; conditions: HL-60, 120 h
# [7] = molecular target: T2, D-3-phosphoglycerate dehydrogenase; experiment: (§1) Non-competitive inhibition of recombinant human C-terminal His-tagged PHGDH (1 to 533 residues) expressed in Escherichia coli assessed as reduction in NADH formation preincubated for 30 mins followed by varying levels of 3-phosphoglycerate substrate addition in presence of constant NAD+ concentration by resorufin fluorescence based PSAT1/diaphorase/PSPH coupled enzyme assay
# [8] = molecular target: T2, D-3-phosphoglycerate dehydrogenase; experiment: as §1, with “constant concentration” for “varying levels”, “varying levels of” for “constant”, “NAD+” for “NAD+ concentration”
# [9] = molecular target: T1, D-3-phosphoglycerate dehydrogenase (Homo sapiens); conditions: 160 uM
Structure (SMILES),inhibition [1] [%],IC50 [2] [µM],IC50 [3] [µM],IC50 [6] [µM],other results
O=C1C=CC(=O)C=C1,100,–,–,–,–
c1ccc(C2CNCCO2)cc1 (configuration not stated),61,–,–,–,–
Nc1nc2c(s1)CCCC2,46,–,–,–,–
FC(F)(F)c1cc(NC(=S)N2CCN(Cc3ccccc3)CC2)cc(C(F)(F)F)c1,80,–,–,–,–
COc1ccc(S(=O)(=O)N2CCNCC2)cc1,35,–,–,–,–
O=C(C(=S)N1CCOCC1)c1ccc([N+](=O)[O-])cc1,–,35.1,> 100,> 100,Ratio IC50 [4]: 3; Ratio IC50 [5]: 2.9
O=C(C(=S)N1CCOCC1)c1ccc(F)cc1,–,68.9,> 100,> 100,Ratio IC50 [4]: > 2.3; Ratio IC50 [5]: 1.5
O=C(C(=S)N1CCOCC1)c1ccccc1I,–,> 200,–,–,–
O=C(C(=S)N1CCOCC1)c1cccc(Cl)c1,–,> 200,> 100,> 100,–
O=C(C(=S)N1CCOCC1)c1ccc(I)cc1,–,178,> 100,> 100,Ratio IC50 [4]: 2.8; Ratio IC50 [5]: 2.8
O=C(C(=S)N1CCOCC1)c1ccccc1,–,30.9,> 100,> 100,Ratio IC50 [4]: 9.1; Ki [7]: 40 µM; Ki [8]: 27 µM; inhibition [9]: Active
O=C(C(=S)N1CCOCC1)c1cccc([N+](=O)[O-])c1,–,88.1,–,–,–
O=C(C(=S)N1CCOCC1)c1cccc(I)c1,–,> 200,–,–,–
S=C(NC1CCCCC1)Sc1ccccc1,51,–,–,–,–
O=C1C=CC(=O)c2ccccc21,95,–,–,–,–
O=C(C(=S)N1CCOCC1)c1ccccc1F,–,> 200,–,–,–

Structure (SMILES),inhibition [1] [%],IC50 [2] [µM],IC50 [3] [µM],IC50 [6] [µM],other results
O=C(Nc1ccccc1[N+](=O)[O-])c1ccc(Cl)cc1,59,75.2,> 100,> 100,–
Cc1cc(C)nc(NC(=O)c2ccc([N+](=O)[O-])cc2)n1,13,–,–,–,–
"S=C(c1ccc(Cl)c(Cl)c1)N1CCOCC1 [(3,4-DICHLOROPHENYL)(MORPHOLINO)METHANETHIONE]",96,–,> 100,> 100,–
O=C1C=CC(=O)N1c1ccccc1Cl,78,–,–,–,–
S=C(Nc1ccccc1)NC1CCCCC1,28,–,–,–,–
O=C(C(=S)N1CCOCC1)c1cccc(Br)c1,–,> 200,–,–,–
O=C(C(=S)N1CCOCC1)c1ccccc1Br,–,161,–,–,–
O=C(N1CCN(c2ccccc2)CC1)n1nnc2ccccc21,37,–,–,–,–
O=C(C(=S)N1CCOCC1)c1ccccc1[N+](=O)[O-],–,> 200,–,–,–
O=C(C(=S)N1CCOCC1)c1ccc(-c2ccccc2)cc1,–,> 200,–,–,–
O=C(C(=S)N1CCOCC1)c1ccc(Cl)cc1,–,8.7,> 100,> 100,Ratio IC50 [4]: 3.2; Ratio IC50 [5]: 3.3
CCCCCN1C(=O)NC(c2ccccc2)(c2ccccc2)C1=O,25,–,–,–,–
O=C(NC(c1ccccc1)c1ccccc1)c1ccc([N+](=O)[O-])cc1,54,–,–,–,–
O=C(C(=S)N1CCOCC1)c1ccc(Br)cc1,–,131,> 100,> 100,Ratio IC50 [4]: 2.6; Ratio IC50 [5]: 2.2
O=C(C(=S)N1CCOCC1)c1ccccc1Cl,–,> 200,> 100,> 100,–
O=C(C(=S)N1CCOCC1)c1cccc(F)c1,–,> 200,–,–,–
